The values that follow come from US20160130311A1, “T CELL EPITOPES DERIVED FROM ALT A 1 OR ALT A 5 FOR THE TREATMENT OF ALTERNARIA ALTERNATA ALLERGY” (priority 2013, published 2016).

Entries after “also recorded” stand apart in the source; their conditions may differ.

The first data set has as its system T cells expanded for 14 days with allergen extract and IL-2.
Assay: not given
To be noted: allergic population; cited from earlier work.
For the compound `CC[C@H](C)[C@H](N)C(=O)N[C@@H](C)C(=O)N[C@@H](CO)C(=O)N[C@@H](CC(C)C)C(=O)N[C@@H](Cc1ccccc1)C(=O)N[C@@H](C)C(=O)N[C@@H](C)C(=O)N[C@@H](C)C(=O)NCC(=O)N[C@@H](CC(C)C)C(=O)N[C@@H](C)C(=O)N[C@@H](C)C(=O)N[C@@H](C)C(=O)N[C@@H](C)C(=O)N1CCC[C@H]1C(=O)O` [p6-20], the “IL-5 and INF-γ ELISPOT result” value is reported as “positive for IL-5 only”.

Take `CC[C@H](C)[C@H](NC(=O)[C@H](Cc1ccc(O)cc1)NC(=O)[C@H](C)NC(=O)[C@H](CC(=O)O)NC(=O)[C@H](C)NC(=O)[C@@H](N)C(C)C)C(=O)N[C@H](C(=O)N[C@@H](CC(C)C)C(=O)N[C@H](C(=O)N[C@H](C(=O)N[C@@H](CC(C)C)C(=O)N1CCC[C@H]1C(=O)N[C@@H](CCCCN)C(=O)N[C@@H](CO)C(=O)N[C@@H](CO)C(=O)O)[C@@H](C)O)C(C)C)[C@@H](C)O` [p143-157]: the “IL-5 and INF-γ ELISPOT result” value is reported as “positive for IL-5 only”.

Take H-LQFTTIASLFAAAGL-OH [p1-15]: the “IL-5 and INF-γ ELISPOT result” value is on record as “negative to both cytokines”.

For the next data set, the target named is DRB1*0101, 0301, 0401, 0701, 1101, 1301,1501 (Homo sapiens, UniProt P01903+P01911, A100R/D57E/F55L/F60I/F76Y/I96L/L162R/M171V/P40L/Q125E/R42F/V115G/Y59C). The data set can be described thus: REVEAL Class II binding assay and Quick Check Stability Assay (MHC-peptide binding). As to conditions: 7 DRB1 alleles; stability index ≧1.0 considered positive for MHC binding. On the procedure:
The MHC restriction of peptides from ProPred prediction were evaluated using the REVEAL Class II binding assay and Quick Check Stability Assay performed by ProImmune (Oxford, United Kingdom). In the REVEAL cell free in vitro assay, the binding of a peptide to an HLA molecule is determined by its ability to stabilize a MHC class II-peptide complex. Each MHC class II-peptide binding was scored relative to a validated proprietary T cell epitope control peptide. The score was determined as the percentage of the signal generated by the test peptide versus the level for the positive control peptide and reflects the on-rate properties of peptide. The off-rate properties of the peptide were determined by the Quick Check Stability Assay which measured the amount of peptide bound at time zero and time 24 hours at 37° C. The two signals were used to estimate a half-life which was multiplied by the REVEAL score and divided by 100 to yield the combined stability index. A stability index ≧1.0 was considered positive for MHC binding.
To confirm ProPred predictions and to validate peptides for continued analysis using IL-4 ELISPOT, an in vitro MHC-peptide binding assay was used to measure binding of 22/25 15mers (excluding p3-17, 42-56, and 43-57) to the 7 DRB1 alleles which accounted for the majority of the ProPred predictions (Table II). […] High stringency binding prediction rates were accurate for alleles *0301 (none predicted) and *1501 (none predicted), while inaccurate with low stringency positive binding prediction rates of 0% (0/10) and 25% (1/4), respectively. Both alleles *0301 and *1501 had low false negative rates of 8% (1/12) and 6% (1/18), respectively. ProPred was inaccurate at both high and low stringency for the three remaining alleles with a 0% binding prediction rate for *0701 (0/9), *1101 (0/14) and *1301 (0/7) but also yielding 0% false negative rates at 0/13, 0/8 and 0/14, respectively. […]
For H-EGDYVWKISEFYGRK-OH [p35-49], the “in vitro binding to DRB1 alleles” value was “non-binding; also recorded: no in vitro binding to any DRB1 allele”.

Turning to H-RSGLLLKQKVSDDIT-OH [p103-117], the “in vitro binding to DRB1 alleles” value is recorded as “non-binding; also recorded: no in vitro binding to any DRB1 allele”.

With H-SGLLLKQKVSDDITY-OH [p104-118], the “in vitro binding to DRB1 alleles” value is reported as “non-binding; also recorded: no in vitro binding to any DRB1 allele”.

System in a further data set: not listed separately
The data set can be described thus: Peptide solubility in sterile pure water. Format: physicochemical.
Conditions: not given
Here is the method: The theoretical average peptide hydrophilicity was calculated using the Hopp and Woods scale (28). For solubility determination, peptides were dissolved in sterile pure water at 50mg/ml (pH=7), mixed, centrifuged and the presence of a pellet indicated insolubility. Insoluble peptides were sequentially diluted and tested down to 2.5mg/ml or until solubility was observed. Peptides not fully dissolved at 2.5mg/ml were considered insoluble in this study.
As for `CC[C@H](C)[C@H](N)C(=O)N[C@@H](C)C(=O)N[C@@H](CO)C(=O)N[C@@H](CC(C)C)C(=O)N[C@@H](Cc1ccccc1)C(=O)N[C@@H](C)C(=O)N[C@@H](C)C(=O)N[C@@H](C)C(=O)NCC(=O)N[C@@H](CC(C)C)C(=O)N[C@@H](C)C(=O)N[C@@H](C)C(=O)N[C@@H](C)C(=O)N[C@@H](C)C(=O)N1CCC[C@H]1C(=O)O` [p6-20], the “solubility in H2O” value is given as “insoluble”.

As for `CC[C@H](C)[C@H](NC(=O)[C@H](Cc1ccc(O)cc1)NC(=O)[C@H](C)NC(=O)[C@H](CC(=O)O)NC(=O)[C@H](C)NC(=O)[C@@H](N)C(C)C)C(=O)N[C@H](C(=O)N[C@@H](CC(C)C)C(=O)N[C@H](C(=O)N[C@H](C(=O)N[C@@H](CC(C)C)C(=O)N1CCC[C@H]1C(=O)N[C@@H](CCCCN)C(=O)N[C@@H](CO)C(=O)N[C@@H](CO)C(=O)O)[C@@H](C)O)C(C)C)[C@@H](C)O` [p143-157], the “solubility in H2O” value is given as “insoluble”.

For the compound H-AADAYITLVTLPKSS-OH [p143-157:V143A], the “solubility in H2O” value is given as “insoluble”.

For the compound H-ANSLGFNIKATNGGT-OH [p55-69:Y55A], the “solubility in H2O” value is “soluble”.

As for H-EADAYITLVTLPKSS-OH [p143-157:V143E], the “solubility in H2O” value is “soluble”.

H-EDDITYVATATLPNY-OH [p113-127:S113E]: the “solubility in H2O” value is reported as “insoluble”.

Take H-EETYYNSLGFNIKAT-OH [p51-65:G52E]: the “solubility in H2O” value was “insoluble”.

H-EKDFVVQGVADAYIT-OH [p135-149:P135E]: the “solubility in H2O” value was “insoluble”.

Turning to H-ENSLGFNIKATNGGT-OH [p55-69:Y55E], the “solubility in H2O” value is “soluble”.

With H-ESTYYNSLGFNIKAT-OH [p51-65:G52S], the “solubility in H2O” value was “soluble”.

On to H-ETYYNSLGFNIKATN-OH [p52-66:G52E], for which the “solubility in H2O” value is listed as “insoluble”.

Consider H-LQFTTIASLFAAAGL-OH [p1-15], for which the “solubility in H2O” value is listed as “insoluble”.

With H-PKDFVVQGVADAYIT-OH [p135-149], the “solubility in H2O” value is “insoluble”.

In the case of H-SADAYITLVTLPKSS-OH [p143-157:V143S], the “solubility in H2O” value was “soluble”.

For the compound H-SKDFVVQGVADAYIT-OH [p135-149:P135S], the “solubility in H2O” value is reported as “insoluble”.

For H-SNSLGFNIKATNGGT-OH [p55-69:Y55S], the “solubility in H2O” value is “soluble”.

On to H-STYYNSLGFNIKATN-OH [p52-66:G52S], for which the “solubility in H2O” value was “soluble”.

As for H-VNSLGFNIKATNGGT-OH [p55-69:Y55V], the “solubility in H2O” value is listed as “insoluble”.

Staying with this data set, now noted: sterile pure water pH=7, 50mg/ml diluted down to 2.5mg/ml; not fully dissolved at 2.5mg/ml = insoluble.
Regarding H-ASLFAAAGLAAAAPL-OH [p7-21], the “solubility in H2O” value is recorded as “insoluble”.

As to H-EGTYYNSLGFNIKAT-OH [p51-65], the “solubility in H2O” value is reported as “insoluble”.

As to H-FTTIASLFAAAGLAA-OH [p3-17], the “solubility in H2O” value is reported as “insoluble”.

H-GTYYNSLGFNIKATN-OH [p52-66]: the “solubility in H2O” value is “insoluble”.

On to H-SDDITYVATATLPNY-OH [p113-127], for which the “solubility in H2O” value is “insoluble”.

For the compound H-YNSLGFNIKATNGGT-OH [p55-69], the “solubility in H2O” value is given as “insoluble”.

The subject of the next data set is PBMCs of Alternaria allergic patients and control subjects. As to the kind of experiment: IL-4 ELISPOT of PBMCs exposed to peptide. It is filed as cell-based, human. As to conditions: Alt a 5 peptide; three Alternaria patients; methods as Example 1. The source says: Peripheral blood was obtained by venipuncture from Alternaria allergic patients and non-sensitized controls. Peripheral blood mononuclear cells (PBMCs) were isolated from heparinized blood by standard Ficoll density gradient centrifugation. PBMCs were washed with CTL (Cellular Technology Limited, Cleveland, Ohio, USA) wash medium containing RPMI-1640 with L-glutamine (Lonza, Basel, Switzerland) before being counted by haemocytometer using trypan blue stain (Sigma). PBMCs (10 million/ml) were resuspended in CTL-Cryo ABC serum-free freezing medium according to the manufacturer's protocol before being frozen overnight at −80° C. and transferred to and stored in liquid nitrogen until time of use.
Enzyme-linked immunospot assay (ELISPOT) analysis was performed utilizing 16 Alternaria patients and 11 controls. For an individual peptide the number of Alternaria patients tested ranged between 10-15 and the number of control subjects ranged between 7-9. Ten Alternaria patients were fully tested with all 22 peptides. For ELISPOT, the BD ELISPOT Human IL-4 Set (BD Biosciences, San Diego, Calif., USA) was used to analyze IL-4 production by human PBMCs. Plates were coated overnight at 4° C. with IL-4 capture antibody (BD Biosciences) and then washed 3 times with Dulbecco's Phosphate Buffer Saline (DPBS, Sigma). Plates were blocked with 1% BSA (Sigma) in PBS for 2 h at room temperature and washed 3 times with DPBS. Cryopreserved Alternaria patient and control subject PBMCs were thawed rapidly, washed, counted, and resuspended in CTL Test Medium supplemented with 2 mM L-glutamine (Sigma) and used at a concentration of 300,000 cells/well contained in 100 μl. […] The plates were dried and analyzed on the ImmunoSpot UV Core ELISPOT Plate Reader (Cellular Technology Limited).
The two-independent sample Wilcoxon rank sum test was used for statistical analysis of ELISPOT data (26). A one-sided control<patient p-value was determined except for peptides 7-21 and 143-157 where a one-sided patient >control p-value was calculated. […]
Two methods were evaluated to interpret the IL-4 ELISPOT spot count data. […]
As for H-AAYLLLGLGGNTSPS-OH [p5-19], the “activity in Alternaria patients (ELISPOT)” value is “active in all 3 patients”.

The data set is the same for the next values; noted with them: IL-4 ELISPOT, cut-off >9 spot counts.
Turning to `CC[C@H](C)[C@H](NC(=O)[C@H](Cc1ccc(O)cc1)NC(=O)[C@H](C)NC(=O)[C@H](CC(=O)O)NC(=O)[C@H](C)NC(=O)[C@@H](N)C(C)C)C(=O)N[C@H](C(=O)N[C@@H](CC(C)C)C(=O)N[C@H](C(=O)N[C@H](C(=O)N[C@@H](CC(C)C)C(=O)N1CCC[C@H]1C(=O)N[C@@H](CCCCN)C(=O)N[C@@H](CO)C(=O)N[C@@H](CO)C(=O)O)[C@@H](C)O)C(C)C)[C@@H](C)O` [p143-157], the “number of patients stimulated” value is “one”.

With H-LQFTTIASLFAAAGL-OH [p1-15], the “number of patients stimulated” value is listed as “one”.
